Test results taken from ChEMBL document CHEMBL3430912, “GSK Tres Cantos Anti-Kinetoplastid Screening (TCAKS) Data”.

How the values were obtained:
Leishmania donovani [1] = test: (§1) GSK_TCAKS: pIC50 Leishmania donovani Imaging: THP-1 Host Macrophages. Assay plates (384-well) were prepared by adding 250nL of compound to each well. For single shot assay, the final compound concentration was 5 uM. […] Automated image analysis was performed with a script developed on Acapella High Content Imaging and Analysis Software (PerkinElmer). Output: THP-1 cell count were reported for each well.; format: functional, organism-based, Homo sapiens
Trypanosoma cruzi [2] = test: GSK_TCAKS: pIC50 Trypanosoma cruzi viability assay using beta-GAL activity. This assay was run at single shot at 5uM compound concentration per well. The biological reagents consisted of NIH-3T3 host cells and trypomastigotes parasitic cells; both cell types were set to a 3.3 * 10^5 cells/mL dilution in assay DMEM by means of a CASY cell counter device using a 60um capillary. 6 uL of the mixture were dispensed per well (about 1 * 10^3 host-cells and 1 * 10^3 parasites) with a Multidrop Combi dispenser. […] In all wells, the percentage of DMSO never exceeded 0.5%. Plates incubated for four days at 37C, 5% CO2. The substrate used for the assay fluorescence intensity (FLINT) readout was resorufin-beta-D-galactopiranoside (Sigma-Aldrich) at 5uM per well. It was diluted in PBS supplemented with the soft detergent Igepal (Fluka).; format: functional, organism-based, Mus musculus; conditions: Tulahuen, NIH3T3
Leishmania donovani [3] = test: as §1, with “Infected” for “THP-1 Host”, “Percent of infected macrophage cells” for “THP-1 cell count”; format: functional, organism-based, Homo sapiens; conditions: THP-1
Leishmania donovani [4] = test: as §1, with “Amastigotes/Macrophages.” for “THP-1 Host Macrophages.”, “Average number of amastigotes per macrophage” for “THP-1”, “cell” for “cell count”; format: functional, organism-based, Homo sapiens; conditions: THP-1
Leishmania donovani [5] = test: GSK_TCAKS: pIC50 Leishmania donovani viability assay using fluorescence intensity. Assay plates (1536-well) were prepared by adding 30nL per well of compound. For single shot assay, the final compound concentration was 5uM. […] Briefly, eGFP LdBOB axenic amastigotes were harvested, fixed and counted in a CASY cell counter (Roche-Applied Science). A final concentration of 1.5 * 10^5 cells per well were prepared in amastigote media containing 500 U/mL penicillin/streptomycin (Invitrogen) and 6uL was dispensed to each experimental well using a Multidrop Combi dispenser (Thermo Scientific). 6uL of assay media was dispensed to control columns used as reference for 100% compound response. Following incubation for 72 h at 37C, 5% CO2, 2 uL of resazurin was added to each well at a final concentration of 0.5 mM in phosphate buffered saline (PBS) with IGEPAL (Sigma-Aldrich), 0.05% (v/v).; format: functional, organism-based
[6] = GSK_TCAKS: pIC50 HepG2 human cell line viability assay using luminiscence. […] Seeding density was checked to ensure that new mono-layers were not more than 50% confluent at the time of harvesting. Cell suspension was added to 500 mL of the same medium at a final density of 1.2 * 10^5 cells/mL. This cell suspension was dispensed (25 uL, 3000 cells per well) into 384-well clear-bottom plates using a Multidrop Combi dispenser. Prior to addition of the cell suspension, the screening compounds (250 nL) were pre-dispensed into the plates with an Echo liquid handler. Plates were incubated for 48 h at 37C, 5% CO2. After incubation, plates equilibrated at room temperature for 30 min before proceeding to develop the luminescent signal. The signal developer, CellTiter-Glo Reagent, was allowed to equilibrate at room temperature for 30 min and added to the plates (25uL per well) using a Multidrop Combi dispenser. Plates were left for 10 min at room temperature for stabilization and then read using a ViewLux.; format: toxicity, cell-based
Trypanosoma cruzi [7] = test: (§2) GSK_TCAKS: pIC50 Trypanosoma cruzi Imaging: Amastigotes/Cell. […] Cells were then washed once with PBS before infection. T. cruzi trypomastigotes, collected at days 5 to 8 after infection from LLC-MK2 parasite infected cultures, were allowed to swim out for 4h at 37C from a centrifuged pellet (2,500 rpm/10 min/room temperature). Trypomastigotes were then collected and counted in a CASY Cell Counter. Trypomastigotes, in supplemented DMEM, were added to H9c2 cultures in a multiplicity of infection of 1 and incubated for 18 h. Cells were washed once with PBS before incubation of the infected H9c2 monolayer with trypsin (Life-Technologies) to detach cells from the flask. Cells were counted in a CASY Cell Counter using a 150 um capillary and their density set at 5 * 10^4 cells per mL in supplemented assay DMEM. Infected H9c2 were dispensed into 384-well poly-lysine coated assay plates at 50uL per well using a Multidrop Combi dispenser. After seeding them, the plates were incubated at 37C, 5% CO2 for 72h. Cultures were then fixed and stained by addition of 50 uL of a solution containing 8% formaldehyde and 4 uM DRAQ5 DNA dye (BioStatus, UK) per well. […] Five images were collected per well for reliable statistical analysis. Automated image analysis was performed with a script developed on Acapella High Content Imaging and Analysis Software (PerkinElmer). Output: number of amastigotes per cell as infection level measurement.; format: functional, organism-based, Rattus norvegicus; conditions: H9c2, 4 h
Trypanosoma cruzi [8] = test: as §2, with “H2C9” for “Trypanosoma cruzi”, “H9c2 Host Cardiomyocytes.” for “Amastigotes/Cell.”, “Number” for “number”, “H9c2 Host Cardiomyocytes nuclei to determine drug-related cytotoxicity.” for “amastigotes per cell as infection level measurement.”; format: functional, organism-based, Rattus norvegicus; conditions: H9c2, 4 h
[9] = system: Trypanosoma brucei brucei; test: GSK_TCAKS: pIC50 Trypanosoma brucei viability assay using luminiscence. Assay plates (1536-well) were prepared. T. brucei cultures were harvested and counted in a CASY cell counter. A parasite suspension was prepared at a final concentration of 5 * 10^4 cells/mL in complete HMI9 medium and 6uL was dispensed to all wells containing compounds using a Multidrop Combi dispenser. 6uL of HMI9 media with 0.4% DMSO were dispensed to control columns. Plates were incubated for 24 h at 37C, 5% CO2 then tempered for 10 min at room temperature. ATP content was quantified by adding 4 uL of CellTiter-Glo Reagent (Promega) according to the manufacturer's instructions. Luminescence was measured using a ViewLux.; format: functional, organism-based; conditions: Lister 427, CASY
[10] = biological target: Sterol 14-alpha demethylase (Trypanosoma cruzi (strain CL Brener), UniProt Q7Z1V1); test: GSK_TCAKS: pIC50 CYP51 from Trypanosoma cruzi.; format: functional
Sterol 14-alpha demethylase, sequence (Q7Z1V1 whole entry): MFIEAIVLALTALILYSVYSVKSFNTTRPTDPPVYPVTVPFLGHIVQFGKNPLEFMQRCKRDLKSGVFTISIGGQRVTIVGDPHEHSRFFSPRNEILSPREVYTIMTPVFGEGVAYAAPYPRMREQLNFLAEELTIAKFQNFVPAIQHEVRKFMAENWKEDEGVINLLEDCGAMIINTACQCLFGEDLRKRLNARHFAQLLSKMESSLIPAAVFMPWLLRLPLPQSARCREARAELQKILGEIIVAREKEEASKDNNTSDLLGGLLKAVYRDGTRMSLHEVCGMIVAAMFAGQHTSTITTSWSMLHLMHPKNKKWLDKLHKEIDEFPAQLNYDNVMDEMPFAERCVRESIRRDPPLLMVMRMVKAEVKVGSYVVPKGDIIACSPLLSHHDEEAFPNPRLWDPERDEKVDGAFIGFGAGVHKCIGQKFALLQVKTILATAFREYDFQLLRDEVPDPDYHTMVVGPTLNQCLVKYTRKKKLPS

[11] = system: Trypanosoma brucei brucei; test: GSK_TCAKS: pIC50 Trypanosoma brucei viability assay using fluorescence intensity. Assay plates (1536-well) were prepared by dispensing 25nL of compound solution per well using an Echo acoustic dispenser (Labcyte).; format: functional, organism-based; conditions: Lister 427, 2 h
Trypanosoma cruzi [12] = test: GSK_TCAKS: pIC50 Trypanosoma cruzi Imaging: Infected Cells. […] Cells were then washed once with PBS before infection. T. cruzi trypomastigotes, collected at days 5 to 8 after infection from LLC-MK2 parasite infected cultures, were allowed to swim out for 4h at 37C from a centrifuged pellet (2,500 rpm/10 min/room temperature). Trypomastigotes were then collected and counted in a CASY Cell Counter. Trypomastigotes, in supplemented DMEM, were added to H9c2 cultures in a multiplicity of infection of 1 and incubated for 18 h. Cells were washed once with PBS before incubation of the infected H9c2 monolayer with trypsin (Life-Technologies) to detach cells from the flask. Cells were counted in a CASY Cell Counter using a 150 um capillary and their density set at 5 * 10^4 cells per mL in supplemented assay DMEM. Infected H9c2 were dispensed into 384-well poly-lysine coated assay plates at 50uL per well using a Multidrop Combi dispenser. After seeding them, the plates were incubated at 37C, 5% CO2 for 72h. Cultures were then fixed and stained by addition of 50 uL of a solution containing 8% formaldehyde and 4 uM DRAQ5 DNA dye (BioStatus, UK) per well. […] Five images were collected per well for reliable statistical analysis. Automated image analysis was performed with a script developed on Acapella High Content Imaging and Analysis Software (PerkinElmer). Output: percentage of infected cells per well as a second infection marker.; format: functional, organism-based, Rattus norvegicus; conditions: H9c2, 4 h

SMILES | IC50 (Leishmania donovani [1]) [µM] | IC50 (Trypanosoma cruzi [2]) [µM] | IC50 (Leishmania donovani [3]) [µM] | IC50 (Leishmania donovani [4]) [µM] | IC50 (Leishmania donovani [5]) [µM] | IC50 at 48 h [6] [µM] | IC50 (Trypanosoma cruzi [7]) [µM] | IC50 (Trypanosoma cruzi [8]) [µM] | IC50 [9] [µM] | IC50 [10] [µM] | IC50 [11] [µM] | IC50 (Trypanosoma cruzi [12]) [µM]
Cc1nn2c(O)c3c(nc2c1-c1ccc(F)cc1)CCCC3 | > 50.1 | 1.58 | > 50.1 | > 50.1 | 1.26 | > 100 | 0.794 | > 50.1 | 0.631 | > 100 | 0.398 | 2
c1ccc(Nc2nc3ccccc3[nH]2)nc1 | 25.1 | 7.94 | 7.94 | 7.94 | 25.1 | 79.4 | 10 | 10 | 25.1 | > 100 | 15.8 | 25.1
CN(CC1CCCO1)S(=O)(=O)c1ccc(C(=O)Nc2nc(-c3ccccn3)cs2)cc1 (centres undefined) | 7.94 | 1.58 | 6.31 | 3.16 | 1.26 | 63.1 | 1.26 | 20 | 0.631 | 7.94 | 0.501 | 2
CC(C)(C)Nc1nc(-c2ccccn2)nc2ccccc12 | 15.8 | 1.26 | 1.58 | 1.26 | 6.31 | 20 | 1.26 | 0.316 | 6.31 | > 100 | 6.31 | 2
Cc1cccc(Nc2nc(-c3ccccn3)cs2)n1 | > 50.1 | 0.631 | 3.16 | 2 | 3.98 | 39.8 | 0.794 | 0.631 | 0.501 | 20 | 1 | 1
COc1ccc(Nc2nc(-c3ccccn3)cs2)c(OC)c1 | > 50.1 | 3.98 | 2.51 | 2 | 6.31 | > 100 | 5.01 | 2 | 25.1 | 20 | 20 | 7.94
O=C(CN1CCN(S(=O)(=O)c2cccc([N+](=O)[O-])c2)CC1)Nc1ccc(Oc2ccccc2)cc1 | > 50.1 | 2.51 | 7.94 | 2 | 3.98 | > 100 | 1.26 | > 50.1 | 15.8 | 2.51 | 20 | 2.51
COc1ccc2ncc(F)c(CCN3CC[C@@H](NC(=O)c4cc5c(s4)CCC5)[C@@H](O)C3)c2n1 | 25.1 | 0.158 | 6.31 | 1.26 | 1 | 50.1 | 0.0501 | 0.126 | 0.316 | 1.26 | 0.1 | 0.126
CC(=O)NC1(c2ccccc2)CCN(CC(=O)Nc2ccccc2-c2ccccc2)CC1 | > 50.1 | 1.26 | > 50.1 | 39.8 | 20 | > 100 | 1.58 | > 50.1 | 0.501 | 50.1 | 0.631 | 7.94
O=C1COC(c2ccccc2)(c2ccccc2)CN1C1CCN(Cc2ccc(-n3ccnc3)cc2)CC1 | 15.8 | 1.58 | 15.8 | 12.6 | 31.6 | 50.1 | 0.501 | 31.6 | 1 | 0.0794 | 0.794 | 2
CC(=O)Nc1ccc(CN2CCC(N3CC(c4ccccc4)(c4ccccc4)OCC3=O)CC2)cc1 | 39.8 | 12.6 | 25.1 | 20 | 0.501 | 79.4 | 20 | > 50.1 | 0.398 | > 100 | 0.316 | 31.6
CCc1ccccc1[C@@H](C)NC(=O)c1cnc2c(cnn2CC)c1NC1CCN(C(N)=O)CC1 | > 50.1 | 25.1 | > 50.1 | > 50.1 | > 50.1 | > 100 | 39.8 | > 50.1 | 0.501 | 79.4 | 0.251 | > 50.1
COC(=O)c1ccc(-c2cnc3ccc(NCc4ccccn4)nn23)cc1 | 12.6 | 7.94 | > 50.1 | 15.8 | 12.6 | 100 | 5.01 | > 50.1 | 1 | 1.26 | 0.631 | 7.94
O=C(Nc1cccc(S(=O)(=O)Nc2ccc(Br)cc2)c1)c1ccc([N+](=O)[O-])s1 | 10 | 0.1 | 1 | 0.794 | 0.794 | 15.8 | 0.1 | 2.51 | 0.398 | 2.51 | 0.2 | 0.126
CCc1cccc(CC)c1-n1c(SCC(=O)N2CC(=O)Nc3ccccc32)nnc1-c1cccnc1 | > 50.1 | 25.1 | > 50.1 | > 50.1 | 39.8 | > 100 | 25.1 | > 50.1 | 1 | 3.16 | 0.501 | 31.6
COc1ccc(C2C3CCCCC3(O)CCN2CC(=O)Nc2ccc(Cl)cc2Cl)cc1 (centres undefined) | > 50.1 | 2.82 | 2.51 | 0.794 | 1.58 | > 100 | 0.794 | 20 | 25.1 | 10 | 7.94 | 1.26
O=C(CN1CCC2(O)CCCCC2C1c1ccc2c(c1)OCO2)Nc1ccc(Cl)cc1Cl (centres undefined) | > 50.1 | 12.6 | 3.16 | 1.26 | 5.01 | > 100 | 3.16 | > 50.1 | 7.94 | 12.6 | 12.6 | 5.01
